Counter-ions that a name gives are not always drawn.

Series [1] relates to hD1 mice. The series can be described thus: Locomotor activity (LMA) in hD1 mice. Format: in vivo, mouse. Conditions: hD1 mice; for Shape of LMA dose-response curve: DETQ up to 240 mg/kg. From the text: Male hD1 mice, 8–10 weeks old (weighing 18 to 25 g at the time of the experiment), were used. Monitoring of mouse LMA took place in transparent plastic shoebox cages having dimensions of 45 × 25 × 20 cm, with a 1-cm depth of wood chips for absorbent bedding, and covered with a ventilated filtered plastic cage top.
Cages were placed in a rectangular frame containing a grid of 12 photocell beams in an 8 × 4 configuration (Kinder Scientific, Poway, CA) that were positioned 2.5 cm from the floor of the cage for the detection of body movements (ambulations), which were recorded by computer for analysis. Mice were placed inside individual LMA boxes for 1 hour during an acclimation period. Mice were then dosed with test compounds (oral or subcutaneous) and were replaced inside individual LMA boxes for the start of LMA. Photocell activity (total ambulations) was collected for 60 minutes using software from Hamilton Kinder (Poway, CA).
Calculation of data based on total ambulations was done using Excel (Microsoft, Redmond, WA). Graphing and statistical analysis of data were done using one-way analysis of variance followed by Dunnett’s multiple comparison test using GraphPad Prism.

Series [2] deals with T1, human D1 receptor (Homo sapiens, UniProt P21728). The series is described as follows: D1 receptor internalization (PathHunter, DiscoveRx).
Series [3] relates to hD1 mice. The series is described as follows: Video-tracking of horizontal motion, rearing and grooming in hD1 mice. Format: in vivo, mouse. From the text: The apparatus for the video-tracking assessment experiment included 12 custom-built video-tracking observation chambers and the HomeCageScan (CleverSys, Reston, VA) software system. The chambers, measuring (in inches) 8 width × 10 length × 8 height, consisted of two end walls, a back wall, a top, and a floor constructed of ¼-in. translucent white acrylic, and one side (front) constructed of clear acrylic. LED strip lighting was placed below the chamber for illumination. A color video camera (640 × 480, 30 frames per second) was placed in front of each chamber to record behavior from a side view. The chambers were located in large sound-attenuating chambers to reduce ambient room noise and isolate lighting. The cameras were connected in groups of four to a quad multiplexer (model NVQC-42N; Nuvico, Englewood, NJ), with each multiplexer connected to its own computer, which then recorded each session to an MPEG file.
At the end of the experiment the files were batch-analyzed by a computer running the CleverSys CageScan video-tracking software. This software can recognize and quantify several different behaviors, including LMA, grooming, rearing, immobility, and feeding behaviors. The current experiment examined behavior in a novel open-field environment rather than home-cage activity, which limited behaviors of interest to LMA, grooming, and rearing.
For HomeCageScan behavioral phenotyping, male D1 knock-in mice (8–12 weeks, 20–25 g body weight) were placed into the observation chambers for a 60-minute habituation session. […] All behavioral activity was monitored and scored by the HomeCageScan system.

Series [4] addresses T1, human D1 receptor. The series can be described thus: cAMP response in HEK293 cells stably expressing the human D1 receptor. Format: cell-based. The following applies: with 12 nM dopamine; % of window between EC20 dopamine and maximum dopamine response.
The subject of another series is hD1 and wild-type mice. The series is described as follows: Seizure observation in mice. Conditions: higher doses, unpublished observation. Format: in vivo, mouse.
In series [5] the test system is hD1 mice. The series can be described thus: Locomotor activity (LMA) in hD1 mice. Format: in vivo, mouse. The following applies: nonhabituated hD1 mice, 30 min pretreatment.
[6] abbreviates: with EC20 dopamine, 0% = EC20 dopamine response, 100% = maximum dopamine response.

T1 sequence (P21728 whole entry): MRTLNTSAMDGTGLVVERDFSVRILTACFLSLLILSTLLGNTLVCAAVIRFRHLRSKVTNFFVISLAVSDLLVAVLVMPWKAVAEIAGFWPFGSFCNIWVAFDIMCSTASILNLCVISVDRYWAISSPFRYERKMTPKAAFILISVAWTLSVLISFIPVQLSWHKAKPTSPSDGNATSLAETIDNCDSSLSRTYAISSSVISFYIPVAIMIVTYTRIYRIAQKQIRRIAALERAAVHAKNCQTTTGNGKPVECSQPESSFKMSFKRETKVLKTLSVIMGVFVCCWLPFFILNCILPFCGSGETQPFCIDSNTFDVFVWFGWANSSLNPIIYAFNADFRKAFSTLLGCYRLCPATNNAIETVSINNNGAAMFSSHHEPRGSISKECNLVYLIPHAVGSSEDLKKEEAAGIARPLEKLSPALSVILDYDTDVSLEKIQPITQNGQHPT

Regarding `Oc1cc2c(cc1O)[C@H]1c3ccccc3CN[C@@H]1CC2` (racemic) [dihydrexidine, reference compound], the “Shape of LMA dose-response curve” value in the series with hD1 mice [1] is listed as “bell-shaped curves”.

In the case of `Cl.NC[C@@H]1O[C@H](C23CC4CC(CC(C4)C2)C3)Cc2c1ccc(O)c2O` [A-77636, (1R)-3-(1-adamantyl)-1-(aminomethyl)-3,4-dihydro-1H-isochromene-5,6-diol;hydrochloride, reference compound], on human D1 receptor [2] (RA for cAMP divided by RA for internalization), the “Pathway Preference cAMP/Internalization” value came out at 6.6. For the same compound, the “RA, Internalization” value at human D1 receptor [2] (top divided by EC50, with 407 nM dopamine) turned out to be 7.78. For the same compound, on human D1 receptor [2] (setting [6]), the “Bottom, D1 receptor internalization” value was −12.8% and the “Top, D1 receptor internalization” value worked out at 112.0%. In addition, the “Horizontal locomotion and rearing” value with hD1 mice [3] is “increase in horizontal locomotion and rearing at lower doses”. Further, on human D1 receptor [4], the “Top, cAMP, potentiator mode” value was determined as 121.0%. Further, the “LMA response on repeated once-a-day dosing” value in the series with hD1 mice [1] (once daily for 4 days) is “completely abolished by day 2”. Further, in the series on hD1 mice [1], the “Shape of LMA dose-response curve” value is listed as “bell-shaped curves”.

With `CCCc1cc2c(s1)CN[C@@H]1CCc3cc(OC(C)=O)c(OC(C)=O)cc3[C@@H]21` [ABT-431, adrogolide hydrochloride], the Seizures entry in the series on hD1 and wild-type mice is reported as “induced seizures”.

For `CN1CCc2cc(Cl)c(O)cc2[C@H]2c3ccccc3CC[C@@H]21` [SCH39166, (6aS,13bR)-11-chloro-7-methyl-5,6,6a,8,9,13b-hexahydronaphtho[1,2-a][3]benzazepin-12-ol], in the series with hD1 mice [5], the “Dose that lowered DETQ-stimulated activity” value was 0.03 mg/kg and the “Dose that lowered basal exploratory activity” value was 0.01 mg/kg.

For the compound `C=CCN1CCc2c(cc(O)c(O)c2Cl)C(c2ccccc2)C1` (stereo not drawn) [SKF 82958, 9-chloro-5-phenyl-3-prop-2-enyl-1,2,4,5-tetrahydro-3-benzazepine-7,8-diol], in the series with hD1 mice [3], the “Grooming (index of stereotyped behavior)” value was “supplanted by grooming at higher doses”; the “Horizontal locomotion and rearing” value was “increase in horizontal locomotion and rearing at lower doses”. In addition, the “Shape of LMA dose-response curve” value with hD1 mice [1] is reported as “bell-shaped curves”.

These data come from paper PMC5193077, “An Allosteric Potentiator of the Dopamine D1 Receptor Increases Locomotor Activity in Human D1 Knock-In Mice without Causing Stereotypy or Tachyphylaxis” (The Journal of Pharmacology and Experimental Therapeutics, 2017).
